# Measurements taken from patent US20240409585A1, “MACROCYCLIC IMMUNOMODULATORS” (priority 2021, published 2024).
# Bridge positions count the residues as written; N and C are the ends. Square brackets hold non-standard residues; d marks the D form. Peptide text beside a SMILES is read from it. * marks the point of attachment. ξ: configuration not given here. Phe(4-COOH) = N[C@@H](Cc1ccc(C(=O)O)cc1)C(=O)O; Phe(4-CH2NH2) = NCc1ccc(C[C@H](N)C(=O)O)cc1; Bip = N[C@@H](Cc1ccc(-c2ccccc2)cc1)C(=O)O; Phe(3-Me) = Cc1cccc(C[C@H](N)C(=O)O)c1; Val(3-OH) = CC(C)(O)[C@H](N)C(=O)O; 4Pal = N[C@@H](Cc1ccncc1)C(=O)O; 3Thi = N[C@@H](Cc1ccsc1)C(=O)O; Cha = N[C@@H](CC1CCCCC1)C(=O)O; Cit = NC(=O)NCCC[C@H](N)C(=O)O; Ile(3ξ) = CCC(C)[C@H](N)C(=O)O; Thr(3ξ) = CC(O)[C@H](N)C(=O)O; Carboxymethyl = O=C(O)C*; NMeA = CN[C@@H](C)C(=O)O; Orn = NCCC[C@H](N)C(=O)O; Pra = C#CC[C@H](N)C(=O)O; Dab = NCC[C@H](N)C(=O)O; NH(CH2)5NH2 = NCCCCCN*; NH(CH2)3NH2 = NCCCN*; ξV = CC(C)C(N)C(=O)O
# Molecular target: T1, PE-labeled human PD-L1-Ig binding to Jurkat cell line over-expressing human PD-1 (Jurkat-PD-1) (Homo sapiens, UniProt Q15116)
# T1 construct: expressed in transfected cells; host or cells: Jurkat
# T1 sequence (Q15116 25-288): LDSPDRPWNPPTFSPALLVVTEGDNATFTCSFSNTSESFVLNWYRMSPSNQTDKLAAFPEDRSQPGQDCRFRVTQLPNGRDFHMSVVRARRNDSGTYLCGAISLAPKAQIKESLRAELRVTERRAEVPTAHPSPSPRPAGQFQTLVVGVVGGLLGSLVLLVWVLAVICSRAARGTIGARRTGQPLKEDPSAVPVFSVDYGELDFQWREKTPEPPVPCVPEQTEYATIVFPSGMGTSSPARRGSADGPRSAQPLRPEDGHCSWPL
# Test: Jurkat-PD-1 Cell Binding High-Content Screening Assay (CBA): Method 1
# Conditions: Jurkat-hPD-1 cells, PE-labeled PD-L1-Ig 20 nM final; read-out: Jurkat HPDL1 PD1 IC50 (uM) (Method 1)
row,IC50 [µM],SMILES
1,0.01,CC(C)C[C@@H]1NC(=O)[C@H](CC(N)=O)NC(=O)[C@@H](CC(C)C)NC(=O)[C@H](C)N(C)C(=O)[C@H](CCCNC(N)=O)NC(=O)[C@H](Cc2ccc(-c3ccccc3)cc2)NC(=O)[C@H](C(C)C)NC(=O)[C@H](Cc2c[nH]c3ccccc23)NC(=O)[C@H](CC(=O)O)NC(=O)[C@H](Cc2ccc(O)cc2)NC(=O)[C@H](Cc2ccccc2)NC(=O)CSC[C@@H](C(=O)N[C@@H](C)C(=O)N[C@@H](CCCN)C(=O)O)NC(=O)[C@H](CO)NC(=O)[C@H](C(C)C)NC1=O [Compound 2237] ({CH2CO}-FYDWV[Bip][Cit][NMeA][dL]NLVSCA[Orn]-OH; thioether N-14)
2,0.01,CC(C)C[C@@H]1NC(=O)[C@H](Cc2c[nH]c3ccccc23)NC(=O)[C@H](CC(=O)O)NC(=O)[C@H](Cc2ccc(O)cc2)NC(=O)[C@H](Cc2ccccc2)NC(=O)CSC[C@@H](C(=O)N[C@@H](C)C(=O)N[C@@H](CCCN)C(=O)O)NC(=O)[C@H](CO)NC(=O)[C@H](C(C)C)NC(=O)[C@H](CC(C)C)NC(=O)[C@H](CC(N)=O)NC(=O)[C@@H](CC(C)C)NC(=O)[C@H](C)N(C)C(=O)[C@H](C(C)C)NC(=O)[C@H](Cc2ccc(-c3ccccc3)cc2)NC1=O [Compound 2238] ({CH2CO}-FYDWL[Bip]V[NMeA][dL]NLVSCA[Orn]-OH; thioether N-14)
3,0.02,C#CC[C@H](NC(=O)[C@@H](C)NC(=O)[C@@H]1CSCC(=O)N[C@@H](Cc2cnc[nH]2)C(=O)N[C@@H](Cc2ccc(OCC(=O)O)cc2)C(=O)N[C@@H](CC(=O)O)C(=O)N[C@@H](Cc2c[nH]c3ccccc23)C(=O)N[C@@H](C(C)C)C(=O)N[C@@H](Cc2ccc(-c3ccccc3)cc2)C(=O)N[C@@H](C(C)CC)C(=O)N(C)[C@@H](C)C(=O)N[C@H](CC(C)C)C(=O)N[C@@H](CCN)C(=O)N[C@@H](CC2CCCCC2)C(=O)N[C@@H](C(C)(C)O)C(=O)N[C@@H](CO)C(=O)N1)C(=O)O (stereo partly drawn) [Compound 2239] ({CH2CO}-HY(Carboxymethyl)DWV[Bip][Ile(3ξ)][NMeA][dL][Dab][Cha][Val(3-OH)]SC[dA][Pra]-OH; thioether N-14)
4,0.04,CC(C)C[C@H]1NC(=O)[C@H](C)N(C)C(=O)[C@H](C(C)C)NC(=O)[C@H](Cc2ccc(-c3ccccc3)cc2)NC(=O)[C@H](C(C)C)NC(=O)[C@H](Cc2c[nH]c3ccccc23)NC(=O)[C@H](CC(N)=O)NC(=O)[C@H](Cc2ccc(OCC(=O)O)cc2)NC(=O)[C@H](Cc2ccccc2)NC(=O)CSC[C@@H](C(=O)N[C@@H](C)C(=O)NCCCCCN)NC(=O)[C@H](CO)NC(=O)C(C(C)C)NC(=O)[C@H](CC2CCCCC2)NC(=O)[C@H](CC(N)=O)NC1=O (stereo partly drawn) [Compound 2240] ({CH2CO}-FY(Carboxymethyl)NWV[Bip]V[NMeA][dL]N[Cha][ξV]SCA-{NH(CH2)5NH2}; thioether N-14)
5,0.03,CC(C)C[C@H]1NC(=O)[C@H](C)N(C)C(=O)[C@H](C(C)C)NC(=O)[C@H](Cc2ccc(-c3ccccc3)cc2)NC(=O)[C@H](C(C)C)NC(=O)[C@H](Cc2c[nH]c3ccccc23)NC(=O)[C@H](CC(=O)O)NC(=O)[C@H](Cc2ccncc2)NC(=O)[C@H](Cc2ccc(CN)cc2)NC(=O)CSC[C@@H](C(N)=O)NC(=O)[C@H](CO)NC(=O)[C@H](C(C)C)NC(=O)[C@H](CC2CCCCC2)NC(=O)[C@H](CC(N)=O)NC1=O [Compound 2242] ({CH2CO}-[Phe(4-CH2NH2)][4Pal]DWV[Bip]V[NMeA][dL]N[Cha]VSC-NH2; thioether N-14)
6,0.02,CC(C)C[C@H]1NC(=O)[C@H](C)N(C)C(=O)[C@H](C(C)C)NC(=O)[C@H](Cc2ccc(-c3ccccc3)cc2)NC(=O)[C@H](C(C)C)NC(=O)[C@H](Cc2c[nH]c3ccccc23)NC(=O)[C@H](CC(=O)O)NC(=O)[C@H](Cc2ccc(CN)cc2)NC(=O)[C@H](Cc2ccc(OCC(=O)O)cc2)NC(=O)CSC[C@@H](C(N)=O)NC(=O)[C@H](CO)NC(=O)[C@H](C(C)C)NC(=O)[C@H](CC2CCCCC2)NC(=O)[C@H](CC(N)=O)NC1=O [Compound 2243] ({CH2CO}-Y(Carboxymethyl)[Phe(4-CH2NH2)]DWV[Bip]V[NMeA][dL]N[Cha]VSC-NH2; thioether N-14)
7,0.04,CC(C)C[C@H]1NC(=O)[C@H](C)N(C)C(=O)[C@H](CCCCN)NC(=O)[C@H](Cc2ccc(-c3ccccc3)cc2)NC(=O)[C@H](C(C)C)NC(=O)[C@H](Cc2c[nH]c3ccccc23)NC(=O)[C@H](CC(=O)O)NC(=O)[C@H](Cc2ccncc2)NC(=O)[C@H](Cc2ccc(OCC(=O)O)cc2)NC(=O)CSC[C@@H](C(N)=O)NC(=O)[C@H](CO)NC(=O)[C@H](C(C)C)NC(=O)[C@H](CC2CCCCC2)NC(=O)[C@H](CC(N)=O)NC1=O [Compound 2244] ({CH2CO}-Y(Carboxymethyl)[4Pal]DWV[Bip]K[NMeA][dL]N[Cha]VSC-NH2; thioether N-14)
8,0.01,CC(C)C[C@H]1NC(=O)[C@H](C)N(C)C(=O)[C@H](C(C)C)NC(=O)[C@H](Cc2ccc(-c3ccccc3)cc2)NC(=O)[C@H](C(C)C)NC(=O)[C@H](Cc2c[nH]c3ccccc23)NC(=O)[C@H](CC(=O)O)NC(=O)[C@H](Cc2ccncc2)NC(=O)[C@H](Cc2ccc(OCC(=O)O)cc2)NC(=O)CSC[C@@H](C(N)=O)NC(=O)[C@H](CO)NC(=O)[C@H](C(C)C)NC(=O)[C@H](CC2CCCCC2)NC(=O)[C@H](CCCCN)NC1=O [Compound 2245] ({CH2CO}-Y(Carboxymethyl)[4Pal]DWV[Bip]V[NMeA][dL]K[Cha]VSC-NH2; thioether N-14)
9,0.03,CC(C)C[C@H]1NC(=O)[C@H](C)N(C)C(=O)[C@H](C(C)C)NC(=O)[C@H](Cc2ccc(-c3ccccc3)cc2)NC(=O)[C@H](C(C)C)NC(=O)[C@H](Cc2c[nH]c3ccccc23)NC(=O)[C@H](CC(=O)O)NC(=O)[C@H](Cc2ccncc2)NC(=O)[C@H](Cc2ccc(OCC(=O)O)cc2)NC(=O)CSC[C@@H](C(N)=O)NC(=O)[C@H](CCCCN)NC(=O)[C@H](C(C)C)NC(=O)[C@H](CC2CCCCC2)NC(=O)[C@H](CC(N)=O)NC1=O [Compound 2246] ({CH2CO}-Y(Carboxymethyl)[4Pal]DWV[Bip]V[NMeA][dL]N[Cha]VKC-NH2; thioether N-14)
10,0.06,CCC(C)[C@@H]1NC(=O)[C@H](Cc2ccc(-c3ccccc3)cc2)NC(=O)[C@H](C(C)C)NC(=O)[C@H](Cc2c[nH]c3ccccc23)NC(=O)[C@H](CC(=O)O)NC(=O)[C@H](Cc2ccc(O)cc2)NC(=O)[C@H](Cc2ccsc2)NC(=O)CSC[C@@H](C(=O)NCCCN)NC(=O)[C@H](C(C)O)NC(=O)[C@H](C(C)(C)O)NC(=O)[C@H](CC2CCCCC2)NC(=O)[C@H](CC(N)=O)NC(=O)[C@@H](CC(C)C)NC(=O)[C@H](C)N(C)C1=O (stereo partly drawn) [Compound 2247] ({CH2CO}-[3Thi]YDWV[Bip][Ile(3ξ)][NMeA][dL]N[Cha][Val(3-OH)][Thr(3ξ)]C-{NH(CH2)3NH2}; thioether N-14)
11,0.04,CCC(C)[C@@H]1NC(=O)[C@H](Cc2ccc(-c3ccccc3)cc2)NC(=O)[C@H](C(C)C)NC(=O)[C@H](Cc2c[nH]c3ccccc23)NC(=O)[C@H](CC(=O)O)NC(=O)[C@H](Cc2ccc(OCC(=O)O)cc2)NC(=O)[C@H](C(C)O)NC(=O)CSC[C@@H](C(N)=O)NC(=O)[C@H](C(C)O)NC(=O)[C@H](C(C)C)NC(=O)[C@H](CC2CCCCC2)NC(=O)[C@H](CCN)NC(=O)[C@@H](CC(C)C)NC(=O)[C@H](C)N(C)C1=O (stereo partly drawn) [Compound 2248] ({CH2CO}-[Thr(3ξ)]Y(Carboxymethyl)DWV[Bip][Ile(3ξ)][NMeA][dL][Dab][Cha]V[Thr(3ξ)]C-NH2; thioether N-14)
12,0.08,Cc1cccc(C[C@@H]2NC(=O)[C@H](CC(=O)O)NC(=O)[C@H](Cc3ccc(OCC(=O)O)cc3)NC(=O)[C@H](C(C)O)NC(=O)CSC[C@@H](C(N)=O)NC(=O)[C@H](C(C)O)NC(=O)[C@H](C(C)C)NC(=O)[C@H](CC3CCCCC3)NC(=O)[C@H](CCN)NC(=O)[C@@H](CC(C)C)NC(=O)[C@H](C)N(C)C(=O)[C@H](Cc3ccc(OCC(=O)O)cc3)NC(=O)[C@H](Cc3ccc(-c4ccccc4)cc3)NC(=O)[C@H](Cc3ccc(C(=O)O)cc3)NC2=O)c1 (stereo partly drawn) [Compound 2249] ({CH2CO}-[Thr(3ξ)]Y(Carboxymethyl)D[Phe(3-Me)][Phe(4-COOH)][Bip]Y(Carboxymethyl)[NMeA][dL][Dab][Cha]V[Thr(3ξ)]C-NH2; thioether N-14)
13,0.02,CCC(C)[C@@H]1NC(=O)[C@H](Cc2ccc(-c3ccccc3)cc2)NC(=O)[C@H](C(C)C)NC(=O)[C@H](Cc2cccc(C)c2)NC(=O)[C@H](CC(=O)O)NC(=O)[C@H](Cc2ccc(OCC(=O)O)cc2)NC(=O)[C@H](C(C)O)NC(=O)CSC[C@@H](C(N)=O)NC(=O)[C@H](C(C)O)NC(=O)[C@H](C(C)C)NC(=O)[C@H](CC2CCCCC2)NC(=O)[C@H](CCN)NC(=O)[C@@H](CC(C)C)NC(=O)[C@H](C)N(C)C1=O (stereo partly drawn) [Compound 2250] ({CH2CO}-[Thr(3ξ)]Y(Carboxymethyl)D[Phe(3-Me)]V[Bip][Ile(3ξ)][NMeA][dL][Dab][Cha]V[Thr(3ξ)]C-NH2; thioether N-14)
14,0.02,CCC(C)[C@@H]1NC(=O)[C@H](Cc2ccc(-c3ccccc3)cc2)NC(=O)[C@H](C(C)C)NC(=O)[C@H](Cc2c[nH]c3ccccc23)NC(=O)[C@H](CC(=O)O)NC(=O)[C@H](Cc2ccc(OCC(=O)O)cc2)NC(=O)[C@H](C(C)O)NC(=O)CSC[C@@H](C(N)=O)NC(=O)[C@H](CO)NC(=O)[C@H](C(C)C)NC(=O)[C@H](CC2CCCCC2)NC(=O)[C@H](CCN)NC(=O)[C@@H](CC(C)C)NC(=O)[C@H](C)N(C)C1=O (stereo partly drawn) [Compound 2251] ({CH2CO}-[Thr(3ξ)]Y(Carboxymethyl)DWV[Bip][Ile(3ξ)][NMeA][dL][Dab][Cha]VSC-NH2; thioether N-14)
15,0.08,CC(C)C[C@@H]1NC(=O)[C@H](Cc2c[nH]c3ccccc23)NC(=O)[C@H](CC(=O)O)NC(=O)[C@H](Cc2ccc(C(=O)O)cc2)NC(=O)[C@H](Cc2ccc(OCC(=O)O)cc2)NC(=O)CSC[C@@H](C(N)=O)NC(=O)[C@H](CO)NC(=O)[C@H](C(C)C)NC(=O)[C@H](CC2CCCCC2)NC(=O)[C@H](Cc2cnc[nH]2)NC(=O)[C@@H](CC(C)C)NC(=O)[C@H](C)N(C)C(=O)[C@H](C(C)C)NC(=O)[C@H](Cc2ccc(-c3ccccc3)cc2)NC1=O [Compound 2252] ({CH2CO}-Y(Carboxymethyl)[Phe(4-COOH)]DWL[Bip]V[NMeA][dL]H[Cha]VSC-NH2; thioether N-14)
